Source: patent publication US20190121935A1, “PHENOTYPIC PERSONALIZED MEDICINE: ADAPTIVE OPTIMIZATION OF PATIENT-SPECIFIC COMBINATION THERAPY” (THE REGENTS OF THE UNIVERSITY OF CALIFORNIA, priority 2015, published 2019)

Assays:
[1] = human, in vivo
Experimental: This prospective trial was conducted under IRB#14-001682, IRB#14-001682-AM-00001, and IRB#14-001682-AM-00002 approved by the UCLA Institutional Review Board. Following liver transplant, patients were started on a regimen of tacrolimus, mycophenolate, and methylprednisolone. According to protocol, methylprednisolone dosing was tapered using a 1000-150-[…]-120-80-40-20 mg regimen. Methylprednisolone was subsequently changed to prednisone given at 20 mg which was commonly followed with a tapering protocol. Mycophenolate dosing was administered according to protocols determined by the clinical team. Serum trough levels were taken between 4:00-6:00 AM daily, and a first dose of tacrolimus was administered between 5:00 AM-6:00 AM daily, following the serum trough recording. The clinical team obtained the daily treatment regimen details including drugs already administered, drugs to be administered, hemodialysis to be performed, co-infections, and planned prophylaxis and sent an updated clinical chart for each patient to the FSC team.
Serum levels, drug regimen dosages, and other events such as hemodialysis were obtained every morning prior to analyses. In order to project optimum dosages, a 2nd order polynomial fit for each patient was made from linear regression with mainly two variables, such as trough concentration and tacrolimus dosing amount, and it was used with at least three prior data points for the specific patient.
Statistical analyses were performed by analyzing the accuracy of correlating 2nd order polynomial mapping to the patients' data since patient-specific treatment was conducted in this study. This was accomplished using the coefficient of determination, or R-squared analysis. Values were used to correlate clinical and regression data. Where relevant, statistical significances of all the generated maps for the data analyses were determined using a t-test at α=0.05 level of confidence.

[2] = Retrospective clinical analysis using FSC of liver transplant patient data (tacrolimus serum trough levels, Patients A and B); format: in vivo, human; conditions: standard of care (clinically observed), target 8-10 ng/ml
Experimental: Retrospective clinical analysis was performed under IRB#14-001682 approved by the UCLA Institutional Review Board. Discharged liver transplantation patient data, such as serum level and drug regimen dosages, were obtained for analyses for the retrospective study. […] In this process, the inclusion of all the drugs as covariates allowed better representation of each patient's data and examination of the effects of drug-drug interactions within each patient's constructed map. Minimum values based on the difference between the individual patient's serum level reading and a target serum level during various small time windows were collected, and these were entered into the globally fitted map of each patient in order to find the optimum dose for that specific patient.

C=CC[C@@H]1/C=C(\C)C[C@H](C)C[C@H](OC)[C@H]2O[C@@](O)(C(=O)C(=O)N3CCCC[C@H]3C(=O)O[C@H](/C(C)=C/[C@@H]3CC[C@@H](O)[C@H](OC)C3)[C@H](C)[C@@H](O)CC1=O)[C@H](C)C[C@@H]2OC [tacrolimus]
share of treatment with trough levels outside of the target range [1]: 91% | trough reading higher than the anticipated trough level [1]: 0.5 ng/mL | trough reading lower than the anticipated trough level [1]: 2.0 ng/mL | day from which trough levels deviated permanently from the target range [2]: ≥ 15 days

CC(=O)NC[C@H]1CN(c2ccc(N3CCOCC3)c(F)c2)C(=O)O1 [Linezolid]
Serum Result (change of tacrolimus serum trough level on co-administration change) [1]: +0.7
